Read-outs that look alike come from different tables or passages of the source.
Assays:
[1] = molecular target: T1, human TRPV1 receptor (hTRPV1) (Homo sapiens (Human), UniProt Q8NER1); assay: Acid activation assay (pH 5.0, FLIPR intracellular Ca2+); assay type: cell-based; conditions: 37.5 μM compound
[2] = molecular target: T1, human TRPV1 receptor (hTRPV1); assay: Capsaicin activation assay (FLIPR intracellular Ca2+); assay type: cell-based
Method in brief: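 Recombinant HEK293 cells stably expressing hTRPV1, Calcium-4 dye loaded 90–120 min at room temperature, were preincubated with compound (12-point, one-third-log) for 3 min before capsaicin challenge. Peak FLIPR fluorescence minus baseline was normalised to capsaicin control response; IC50 from four-parameter logistic fit.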

T1 sequence (Q8NER1 whole entry): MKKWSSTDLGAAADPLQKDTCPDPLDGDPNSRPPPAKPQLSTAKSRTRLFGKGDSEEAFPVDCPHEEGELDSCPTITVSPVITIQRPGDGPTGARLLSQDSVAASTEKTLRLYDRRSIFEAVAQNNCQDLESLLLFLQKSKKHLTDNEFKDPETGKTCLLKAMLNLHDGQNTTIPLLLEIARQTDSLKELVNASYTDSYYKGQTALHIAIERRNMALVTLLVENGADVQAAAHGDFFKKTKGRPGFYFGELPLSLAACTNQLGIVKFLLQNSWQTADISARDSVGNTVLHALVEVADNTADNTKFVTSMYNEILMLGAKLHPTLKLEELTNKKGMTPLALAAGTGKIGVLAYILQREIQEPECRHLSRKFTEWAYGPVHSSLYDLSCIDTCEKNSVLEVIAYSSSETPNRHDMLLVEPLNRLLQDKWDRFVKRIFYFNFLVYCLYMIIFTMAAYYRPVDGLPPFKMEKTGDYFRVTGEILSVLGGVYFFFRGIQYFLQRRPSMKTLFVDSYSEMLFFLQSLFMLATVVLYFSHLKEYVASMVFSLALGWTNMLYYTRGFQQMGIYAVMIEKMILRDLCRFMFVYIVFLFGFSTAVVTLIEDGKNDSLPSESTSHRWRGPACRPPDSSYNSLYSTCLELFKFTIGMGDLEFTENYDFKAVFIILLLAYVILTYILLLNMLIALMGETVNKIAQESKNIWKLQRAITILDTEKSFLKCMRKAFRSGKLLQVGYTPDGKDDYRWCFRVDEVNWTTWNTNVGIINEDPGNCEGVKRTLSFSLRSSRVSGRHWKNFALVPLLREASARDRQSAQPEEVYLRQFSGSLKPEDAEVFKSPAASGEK

remaining activity at 37.5 µM ([1]; percentage of the maximal pH 5.0-induced response remaining, read-out: hTRPV1 H+ (max % remain)): 72%
human TRPV1 H+ (max % remain) ([1]; Table 2, percentage of maximal pH 5.0-induced response): 72%
IC50 ([2]; Table 2, capsaicin-induced intracellular Ca2+ increase, read-out: human TRPV1 capsaicin IC50): 54 nM
IC50 ([2]; inhibition of capsaicin-induced intracellular Ca2+ increase, compounds added 3 minutes prior to capsaicin, read-out: hTRPV1 cap. IC50): 54 nM
Structure (SMILES): CS(=O)(=O)Nc1ccc(CNC(=O)N[C@@H]2CC(CF)(CF)Oc3cc(C(F)(F)F)ccc32)cc1F [Example 10, N-{4-[({[(4R)-2,2-bis(fluoromethyl)-7-(trifluoromethyl)-3,4-dihydro-2H-chromen-4-yl]carbamoyl}amino)methyl]-2-fluorophenyl}methanesulfonamide]

From patent publication US8796328B2, “TRPV1 antagonists” (AbbVie Inc., priority 2012, dated 2014)
